PubChem BioAssay AID2060507 (Molecular Pharmacology Branch, DTP, NCI, 2025)
Blank lines part the entries; values can stand above or below the molecule they belong to.

Tested on: 519858-162-T-J1-PDC complex spheroid viability
Test: Anticancer human tumor 519858-162-T-J1-PDC patient-derived colon adenocarcinoma cell line growth inhibition [GQUAD]
Conditions: for IC50: curve of first compound; for viability, T/C: stronger effect = lower value
Method in brief: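 Tumor cells were grown as complex spheroids with HUVEC endothelial cells and mesenchymal stem cells as stroma. G-quadruplex stabilizers were combined with targeted agents over half-log dilutions from near the clinical Cmax, or from 10 microM.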

[1] = second compound 0.0316 µM, first compound 0.0316 µM
[2] = second compound 0.0316 µM, first compound 0.1 µM
[3] = second compound 0.0316 µM, first compound 0.316 µM
[4] = second compound 0.0316 µM, first compound 1 µM
[5] = second compound 0.0316 µM, first compound 3.16 µM
[6] = second compound 0.0316 µM, first compound 10 µM
[7] = second compound 0.1 µM, first compound 0.0316 µM
[8] = second compound 0.1 µM, first compound 0.1 µM
[9] = second compound 0.1 µM, first compound 0.316 µM
[10] = second compound 0.1 µM, first compound 1 µM
[11] = second compound 0.1 µM, first compound 3.16 µM
[12] = second compound 0.1 µM, first compound 10 µM
[13] = second compound 0.316 µM, first compound 0.0316 µM
[14] = second compound 0.316 µM, first compound 0.1 µM
[15] = second compound 0.316 µM, first compound 0.316 µM
[16] = second compound 0.316 µM, first compound 1 µM
[17] = second compound 0.316 µM, first compound 3.16 µM
[18] = second compound 0.316 µM, first compound 10 µM
[19] = second compound 1 µM, first compound 0.0316 µM
[20] = second compound 1 µM, first compound 0.1 µM
[21] = second compound 1 µM, first compound 0.316 µM
[22] = second compound 1 µM, first compound 1 µM
[23] = second compound 1 µM, first compound 3.16 µM
[24] = second compound 1 µM, first compound 10 µM
[25] = second compound 3.16 µM, first compound 0.0316 µM
[26] = second compound 3.16 µM, first compound 0.1 µM
[27] = second compound 3.16 µM, first compound 0.316 µM
[28] = second compound 3.16 µM, first compound 1 µM
[29] = second compound 3.16 µM, first compound 3.16 µM
[30] = second compound 3.16 µM, first compound 10 µM
[31] = second compound 10 µM, first compound 0.0316 µM
[32] = second compound 10 µM, first compound 0.1 µM
[33] = second compound 10 µM, first compound 0.316 µM
[34] = second compound 10 µM, first compound 1 µM
[35] = second compound 10 µM, first compound 3.16 µM
[36] = second compound 10 µM, first compound 10 µM
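Note: spheroids exposed to compounds for 7 days.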
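Throughout, for viability, T/C: 100% = DMSO vehicle control viability.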

SMILES: C#Cc1c(F)ccc2cc(O)cc(-c3ncc4c(N5CC6CCC(C5)N6)nc(OCC56CCCN5CC(F)C6)nc4c3F)c12 (stereo unspecified) + CN(C)c1ccc(Nc2c3ccc(NC(=O)CCN4CCCC4)cc3nc3cc(NC(=O)CCN4CCCC4)ccc23)cc1
IC50 (second compound 0.0316 µM): > 10 µM
IC50 (second compound 0.1 µM): > 10 µM
IC50 (second compound 0.316 µM): > 10 µM
IC50 (second compound 1 µM): > 10 µM
IC50 (second compound 3.16 µM): > 10 µM
IC50 (second compound 10 µM): > 10 µM
viability, T/C [1]: 117%
viability, T/C [2]: 100%
viability, T/C [3]: 99.8%
viability, T/C [4]: 70.8%
viability, T/C [5]: 72%
viability, T/C [6]: 99.5%
viability, T/C [7]: 86.2%
viability, T/C [8]: 85.3%
viability, T/C [9]: 89.4%
viability, T/C [10]: 93.2%
viability, T/C [11]: 70.2%
viability, T/C [12]: 62.7%
viability, T/C [13]: 134%
viability, T/C [14]: 87.8%
viability, T/C [15]: 93.1%
viability, T/C [16]: 77.3%
viability, T/C [17]: 82.1%
viability, T/C [18]: 77.6%
viability, T/C [19]: 112%
viability, T/C [20]: 97.4%
viability, T/C [21]: 78.1%
viability, T/C [22]: 66.2%
viability, T/C [23]: 91.7%
viability, T/C [24]: 62%
viability, T/C [25]: 92%
viability, T/C [26]: 85.5%
viability, T/C [27]: 118%
viability, T/C [28]: 74.5%
viability, T/C [29]: 72.9%
viability, T/C [30]: 62.9%
viability, T/C [31]: 66.9%
viability, T/C [32]: 55%
viability, T/C [33]: 77.8%
viability, T/C [34]: 48.9%
viability, T/C [35]: 89.3%
viability, T/C [36]: 55.6%

IC50 (second compound 0.0316 µM): > 10 µM
IC50 (second compound 0.1 µM): > 10 µM
IC50 (second compound 0.316 µM): > 10 µM
IC50 (second compound 1 µM): > 10 µM
IC50 (second compound 3.16 µM): > 10 µM
IC50 (second compound 10 µM): < 0.0316 µM
SMILES: CC(=O)O[C@H]1C(=O)[C@@]2(C)[C@H]([C@H](OC(=O)c3ccccc3)[C@]3(O)C[C@H](OC(=O)[C@H](O)[C@@H](NC(=O)c4ccccc4)c4ccccc4)C(C)=C1C3(C)C)[C@]1(OC(C)=O)CO[C@@H]1C[C@@H]2O + Cc1cnc(CNC(=O)c2c(=O)c3ccc(N4CCCN(C)CC4)nc3n3c2sc2ccccc23)cn1
viability, T/C [1]: 78.7%
viability, T/C [2]: 93.7%
viability, T/C [3]: 72.2%
viability, T/C [4]: 75.3%
viability, T/C [5]: 92.5%
viability, T/C [6]: 93.3%
viability, T/C [7]: 104%
viability, T/C [8]: 90.9%
viability, T/C [9]: 74.8%
viability, T/C [10]: 91.5%
viability, T/C [11]: 103%
viability, T/C [12]: 67.8%
viability, T/C [13]: 65.2%
viability, T/C [14]: 57.1%
viability, T/C [15]: 60.6%
viability, T/C [16]: 68.9%
viability, T/C [17]: 70.9%
viability, T/C [18]: 73.4%
viability, T/C [19]: 55.7%
viability, T/C [20]: 70.9%
viability, T/C [21]: 48.5%
viability, T/C [22]: 58.6%
viability, T/C [23]: 67.1%
viability, T/C [24]: 56.1%
viability, T/C [25]: 59.7%
viability, T/C [26]: 67.7%
viability, T/C [27]: 45.9%
viability, T/C [28]: 66.8%
viability, T/C [29]: 51.4%
viability, T/C [30]: 59.9%
viability, T/C [31]: 26.7%
viability, T/C [32]: 44.4%
viability, T/C [33]: 38.7%
viability, T/C [34]: 58.5%
viability, T/C [35]: 48.9%
viability, T/C [36]: 69.6%

IC50 (second compound 0.0316 µM): 10 µM
IC50 (second compound 0.1 µM): > 10 µM
IC50 (second compound 0.316 µM): > 10 µM
IC50 (second compound 1 µM): > 10 µM
IC50 (second compound 3.16 µM): < 0.0316 µM
IC50 (second compound 10 µM): < 0.0316 µM
SMILES: CC1COCCN1c1cc(C2(S(C)(=N)=O)CC2)nc(-c2ccnc3[nH]ccc23)n1 (stereo unspecified) + Cc1cnc(CNC(=O)c2c(=O)c3ccc(N4CCCN(C)CC4)nc3n3c2sc2ccccc23)cn1
viability, T/C [1]: 90.9%
viability, T/C [2]: 84.6%
viability, T/C [3]: 89%
viability, T/C [4]: 98.5%
viability, T/C [5]: 48%
viability, T/C [6]: 67.8%
viability, T/C [7]: 114%
viability, T/C [8]: 91.3%
viability, T/C [9]: 84.3%
viability, T/C [10]: 59.8%
viability, T/C [11]: 55.2%
viability, T/C [12]: 78.5%
viability, T/C [13]: 79.3%
viability, T/C [14]: 92.8%
viability, T/C [15]: 67.8%
viability, T/C [16]: 82.6%
viability, T/C [17]: 79.3%
viability, T/C [18]: 66.6%
viability, T/C [19]: 48.6%
viability, T/C [20]: 57.5%
viability, T/C [21]: 74.4%
viability, T/C [22]: 44.8%
viability, T/C [23]: 48.2%
viability, T/C [24]: 57.7%
viability, T/C [25]: 35.9%
viability, T/C [26]: 39%
viability, T/C [27]: 45.5%
viability, T/C [28]: 56.4%
viability, T/C [29]: 51.4%
viability, T/C [30]: 51.1%
viability, T/C [31]: 46%
viability, T/C [32]: 35.6%
viability, T/C [33]: 62.2%
viability, T/C [34]: 41%
viability, T/C [35]: 58.8%
viability, T/C [36]: 37.4%
